Reference: patent US20130078224A1, “INDUCTION/MONITORING OF ARTERIOGENESIS USING SDF1 AND PDGFB OR INHIBITION OF PHD2” (LIFE SCIENCES RESEARCH PARTNERS VZW, priority 2010, published 2013)

Assays:
F4/80+Tie2+ cells = experiment: Deletion of TEMs by GCV in Tie2:tk-BMT mice (F4/80 and Tie2 double staining of adductor); assay type: in vivo; conditions: GCV 50 mg/kg daily
[1] = system: secondary and tertiary collateral arteries; experiment: Collateralization and ischemic necrosis in Tie2:tk-BMT mice after GCV; assay type: in vivo; conditions: PHD2+/- Tie2:tk-BMT mice
[2] = system: hCASMC (Human coronary artery smooth muscle cells); experiment: SMC migration (Transwell) toward PHD2+/- macrophages; assay type: cell-based; conditions: AMD3100 1 μg/ml, imatinib 2.5 μg/ml, alone or combined
Method: (§1) Cell Migration and Viability Assays: Migration and proliferation of SMCs and ECs were assessed by using 8 μm-pore Transwell peimeable plate for migration assays and 0.4 μm-pore Transwell permeable plate for proliferation assays (Corning Life Science). To determine cell migration toward the factors secreted by pMØ, pMØ were cultured in the lower chamber for twelve hours in RPMI 1% FBS or in M-199 1% FBS (migration assay), or 48 hours in DMEM-F12 1% FBS or in M-199 1% FBS (proliferation assay). For migration assays, hCASMC (Human coronary artery smooth muscle cells; from Lonza) and HUVEC (Human umbilical vein endothelial cells; from Lonza) were starved for twelve hours in their own medium at 1% FBS and, therefore, seeded in the upper chamber (5×10^3 cells in 200 μl of medium 1% FBS), with or without AMD3100 (1 μg/ml, Sigma-Aldrich, Dorset, U.K) and imatinib (2.5 μg/ml, Novartis). SMCs and HUVECs were incubated for two days or 24 hours, respectively, and migrated cells were fixed with 4% PFA, stained with 0.25% crystal violet/50% methanol and counted under the microscope. VEGF (100 ng/mL, R&D), PDGFB (100 ng/mL, R&D) or SDF 1 (100 ng/mL, R&D) were used as positive controls. […] The cell proliferative ability was then analyzed using WST-1 Cell Proliferation Assay (Roche Applied Biosciences) according to the manufacturer instructions after 24 hours of coculture with the pMØ. […]

[3] = system: RAOSMC (Rat Aortic Smooth Muscle Cells); experiment: SMC growth assay (WST-1) in coculture with PHD2+/- macrophages; assay type: cell-based; conditions: AMD3100, imatinib, alone or combined
Method: as §1

[4] = system: secondary and tertiary collateral arterioles; experiment: Collateral vessel formation in bone marrow transplanted mice treated with AMD3100/imatinib (gelatin bismuth angiography); assay type: in vivo
Method: Mouse Model of Hindlimb Ischemia: To induce hind limb ischemia, unilateral or bilateral ligations of the femoral artery and vein (proximal to the popliteal artery) and the cutaneous vessels branching from the caudal femoral artery side branch were performed without damaging the nervus femoralis (Luttun et al., Nat. Med. 8:831-840, 2002). By using this procedure, collateral flow to adductor muscles is preserved via arterioles branching from the femoral artery, therefore, 50% up to 60% of perfusion is preserved by this method. Two superficial preexisting collateral arterioles connecting the femoral and saphenous arteries were used for analysis. Functional perfusion measurements of the collateral region were performed using a Lisca PIM II camera (Gambro). Gelatin bismuth-based angiography was perfottned as described (Carmeliet et al., Nat. Med. 7:575-583, 2001) and analyzed by photoangiographs (Nikon D1 digital camera). Collateral side branches were categorized as follows: second-generation collateral arterioles directly branched off from the main collateral, whereas third-generation collateral arterioles were orientated perpendicularly to the second-generation branches. The number of secondary and tertiary collateral arterioles was counted. After perfusion-fixation, the muscle tissue between the two superficial collateral arterioles (adductor) was post-fixed in 2% paraformaldehyde (PFA) and paraffin-embedded, and were morphometrically analyzed. An endurance treadmill-running test was perfatmed at 12, 24, 48, and 72 hours after bilateral femoral artery ligation.
Bone Marrow (BM) Transplantation and Hematological Analysis: Balb/c WT and PHD2^+/− recipient mice were irradiated with 7.5 Gy. Subsequently, 5×10^6 bone marrow cells from green fluorescent protein^+ (GFP^+) WT or GFP^+ PHD2^+/− mice were injected intravenously via the tail vein. After one week, saline or AMD3100 (5 mg/kg) was administered intravenously and saline or imatinib ([…]) was administered by oral gavage for four weeks. Femoral artery ligation, treadmill running test and bismuth angiography were performed at six weeks after bone marrow reconstitution. Red and white blood cell count was determined using a hemocytometer on peripheral blood collected in heparin with capillary pipettes by retro-orbital bleeding. To assess the effect of acute deletion of macrophage-borne PHD2 on arteriogenesis, PHD2^Rosa26CreERT;lox/wt bone marrows were transplanted into lethally irradiated WT recipient mice. After five weeks, transplanted mice were injected i.p. with tamoxifen (1 mg/mouse; Sigma) or vehicle for five days. TEM quantification and femoral artery ligation were performed ten days after tamoxifen treatment as explained above. The bone marrow of PHD2^WT;Tie2:GFP or PHD2^HE;Tie2:GFP mice was transplanted in lethally irradiated WT mice. After five weeks, mice were injected systemically (5×10^11 vp) and locally (5×10^9 vp in two points of the adductor) with an AAV9 encoding the mouse extracellular domain of Tie2 fused to a flag tag (AAV9:sTie2). AAV9 encoding the human serum albumin was used as control. One week after injection of the viral vector, mice were subjected to femoral artery ligation. Blood and adductor samples were harvested at baseline and 72 hours post-ischemia and used to sort CD115^+GFP^+ circulating monocytes and F4/80^+GFP^+ macrophages.

PDGFB, SDF1, and Tie2 = experiment: Gene expression (qRT-PCR) in PHD2Rosa26CreERT;lox/wt peritoneal macrophages after 4-OHT; assay type: cell-based, mice; conditions: 2 μM, 48 hours
Method: Macrophage Preparation: To harvest peritoneal macrophages (pMØ), the peritoneal cavity was washed with 5 ml of RPMI 10% FBS. The pooled cells were then seeded in RPMI 10% FBS in six-well plates (2×10^6 cells/well), twelve-well plates (1×10^6 cells/well), or 24-well plates (5×10^5 cells/well). After six hours of incubation at 37° C. in a moist atmosphere of 5% CO2 and 95% air, non-adhering cells on each plate were removed by rinsing with phosphate-buffered saline (PBS). The attached macrophages were cultured in different mediums for 12 hours or 48 hours, depending on the experiments performed, as described below. When high amounts of cells were needed (analysis for HIF accumulation and NF-κB activity), macrophages were derived from bone marrow precursors as described before (Meerpohl et al., Eur. J. Immuno. 6:213-7, 1976). Briefly, bone marrow cells (2×10^6 cells/ml) were cultured in a volume of 5 ml in a 10 cm Petri dish (non-tissue culture-treated, bacterial grade) for ten days in DMEM supplemented with 20% FBS and 30% L929 conditioned medium as a source of M-CSF. The cells obtained in those cultures are uniformly macrophages. […]
Quantitative PCR Analysis: In order to investigate gene expression in pMØ, quantitative RT-PCR (qRT-PCR) was performed. […] Quantitative RT-PCR was perfouned with commercially available or homemade primers and probes for the studied genes. […]

PHD2 = PHD2 expression (qPCR) in bone marrow-derived monocyte/macrophage cultures upon cytokine stimulation; assay type: cell-based, mice
Method: Quantitative PCR Analysis: In order to investigate gene expression in pMØ, quantitative RT-PCR (qRT-PCR) was performed. After preparing pMØ, the cells were cultured in normoxic condition for twelve hours, and the RNA was extracted. To analyze the gene profile of adductor, gastrocnemius, and soleus muscle, tissues were collected at baseline or 24 hours/72 hours post-ischemia and RNA was extracted. Macrophages and ECs were freshly sorted from dissected adductors as described below and RNA was extracted. Quantitative RT-PCR was perfouned with commercially available or homemade primers and probes for the studied genes. The assay ID (Applied Biosystems, Foster City, Calif.) or the sequence of primers and probes (when homemade) are listed in Table 5. RNA levels of Tie-2, SDF1 and PDGFB after inhibition of NF-κB pathway were measured by qRT-PCR on pMØ exposed for twelve hours to 500 nM 6-amino-4-(4-phenoxyphenylethylamino)quinazoline. […] After 24 hours, cells were harvested for RNA extraction and cDNA preparation.

Tie2, PDGFB and SDF1 = experiment: Expression of PDGFB, SDF1 and Tie2 (qPCR) in monocytes/macrophages upon angiopoietin-1; assay type: cell-based, mice; conditions: monocytes/macrophages after angiopoietin-1 stimulation (50 and 250 ng/ml)
Method: Quantitative PCR Analysis: In order to investigate gene expression in pMØ, quantitative RT-PCR (qRT-PCR) was performed. After preparing pMØ, the cells were cultured in normoxic condition for twelve hours, and the RNA was extracted. To analyze the gene profile of adductor, gastrocnemius, and soleus muscle, tissues were collected at baseline or 24 hours/72 hours post-ischemia and RNA was extracted. Macrophages and ECs were freshly sorted from dissected adductors as described below and RNA was extracted. Quantitative RT-PCR was perfouned with commercially available or homemade primers and probes for the studied genes. The assay ID (Applied Biosystems, Foster City, Calif.) or the sequence of primers and probes (when homemade) are listed in Table 5. RNA levels of Tie-2, SDF1 and PDGFB after inhibition of NF-κB pathway were measured by qRT-PCR on pMØ exposed for twelve hours to 500 nM 6-amino-4-(4-phenoxyphenylethylamino)quinazoline. To evaluate PHD2 levels on monocyte/macrophage cultures, 2.5×10^5 bone marrow-derived monocytes/macrophages (see above) were seeded in a 24-well plate in DMEM 10% FBS and stimulated with 50 ng/ml angiopoietin-1 (Peprotech) or 50 ng/ml angiopoietin-2 (Prospec). After 24 hours, cells were harvested for RNA extraction and cDNA preparation.

[5] = HE→WT mice, daily AMD3100 5 mg/kg or imatinib 50 mg/kg alone

Nc1nc(O)c2ncn(COC(CO)CO)c2n1 [GCV, ganciclovir]
reduction of density of F4/80+Tie2+ cells (F4/80+Tie2+ cells; PHD2+/- Tie2:tk-BMT mice, 72 hours post-ischemia): 68±5% | reduction of density of F4/80+Tie2+ cells (F4/80+Tie2+ cells; PHD2+/- Tie2:tk-BMT mice, baseline): 58±11% | reduction of density of F4/80+Tie2+ cells (F4/80+Tie2+ cells; WT Tie2:tk-BMT mice, 72 hours post-ischemia): 39±6% | reduction of density of F4/80+Tie2+ cells (F4/80+Tie2+ cells; WT Tie2:tk-BMT mice, baseline): 46±10% | ischemic protection (fiber necrosis) ([1]; 72 hours after ligation): abolished ischemic protection | formation of secondary and tertiary collateral arteries ([1]; baseline, vs untreated group): completely prevented

Cc1ccc(NC(=O)c2ccc(CN3CCN(C)CC3)cc2)cc1Nc1nccc(-c2cccnc2)n1 [imatinib]
migration of SMCs toward PHD2+/- macrophages [2]: not effective | increased SMC growth by PHD2+/- macrophages [3]: abrogated | increased formation of second generation collateral branches [4, 5]: only partially prevented | third generation collaterals [4, 5]: affected | number of collateral branch arteries ([4]; WT→WT mice, alone or in combination): not affected

4-hydroxytamoxifen
expression of PDGFB, SDF1, and Tie2 (PDGFB, SDF1, and Tie2): increased expression

B1: angiopoietin-1: Tie2 ligand cytokine (Peprotech) (protein, UniProt Q15389 16-498, looked up)
Angiopoietin-1: HIGCSNQRRSPENSGRRYNRIQHGQCAYTFILPEHDGNCRESTTDQYNTNALQRDAPHVEPDFSSQKLQHLEHVMENYTQWLQKLENYIVENMKSEMAQIQQNAVQNHTATMLEIGTSLLSQTAEQTRKLTDVETQVLNQTSRLEIQLLENSLSTYKLEKQLLQQTNEILKIHEKNSLLEHKILEMEGKHKEELDTLKEEKENLQGLVTRQTYIIQELEKQLNRATTNNSVLQKQQLELMDTVHNLVNLCTKEGVLLKGGKREEEKPFRDCADVYQAGFNKSGIYTIYINNMPEPKKVFCNMDVNGGGWTVIQHREDGSLDFQRGWKEYKMGFGNPSGEYWLGNEFIFAITSQRQYMLRIELMDWEGNRAYSQYDRFHIGNEKQNYRLYLKGHTGTAGKQSSLILHGADFSTKDADNDNCMCKCALMLTGGWWFDACGPSNLNGMFYTAGQNHGKLNGIKWHYFKGPSYSLRSTTMMIRPLDF
PHD2 levels down-regulated, dose-dependent, up to (PHD2; WT monocytes/macrophages): 50 % of the basal levels | PHD2 down-modulation in monocytes/macrophages (PHD2; after angiopoietin-1 stimulation): 40% | expression of Tie2, PDGFB and SDF1 (Tie2, PDGFB and SDF1): increased expression
